Measured values published in patent US20060204449A1, “Nasal pharmaceutical composition of piribedil” (priority 2003, published 2006).

Key:
[1] = humans; cited from earlier work
[2] = Kinetics, tolerance and bioavailability study in healthy volunteers (nasal administration); assay type: in vivo, humans; details: human, plasma, inhaled or intranasal, formulation of Example 1, deduced from the kinetics results, read-out: bioavailability of piribedil administered by the nasal route
Description: Kinetics, Tolerance and Bioavailability Study in Healthy Volunteers
A study was carried out in 24 healthy volunteers in order to assess the local tolerance of the pharmaceutical composition according to the invention and also the kinetics of the formulation.
This study was carried out using the formulation described in Example 1, administered with the aid of a metering pump which delivers 100 μl of solution on each spray. The doses of piribedil tested are as follows: 0.1 mg, 0.25 mg, 0.5 mg, 1 mg and 2 mg, administered using two sprays each of 100 μl.

c1cnc(N2CCN(Cc3ccc4c(c3)OCO4)CC2)nc1 [piribedil, Piribedil]
bioavailability by the oral route in relation to the parenteral route [1]: low | bioavailability [2]: 50 to 70%
